These results are taken from US8263046B2, “N-phenyl-N-pyridinyl-benzamides and benzenesulfonomides having cooling properties” (Givaudan S.A., priority 2005, dated 2012).

The assay deals with panelists. Put plainly: Experiments on cooling properties/intensities: panelists taste aqueous solutions. The assay is classed as in vivo. As to conditions: aqueous solution with cooling intensity similar or slightly higher than that of a solution of I-menthol at 2 ppm.
Consider `COc1ccc(C(=O)N(CCc2ccccn2)c2ccccc2)cc1` [Example 1, 4-Methoxy-N-phenyl-N-[2-(pyridin-2-yl)ethyl]benzamide], for which the Concentration was determined as 1.5 ppm. In the case of `COc1ccc(S(=O)(=O)N(CCc2ccccn2)c2ccccc2)cc1` [Example 2, 4-Methoxy-N-phenyl-N-[2-(pyridin-2-yl)ethyl]benzenesulfonamide] it was 2 ppm. In the case of `O=S(=O)(c1ccc(Cl)cc1)N(CCc1ccccn1)c1ccccc1` [Example 3a, 4-Chloro-N-phenyl-N-[2-(pyridin-2-yl)ethyl]benzenesulfonamide] it was 2 ppm.

Turning to `CCNC(=O)C1CC(C)CCC1C(C)C` (stereo not shown) [WS-3, N-ethyl p-menthanecarboxamide, reference compound], the Concentration stood at 1.5 ppm.
